{
  "source": "patent US20190346442A1",
  "about": "“IMPROVED HLA EPITOPE PREDICTION” (The Broad Institute, Inc., priority 2016, published 2019)",
  "origin": "cited, not measured here",
  "key": {"[1]": {"tested_on": "ovarian carcinoma patients", "settings": "poly-ICLC in combination with NY-ESO-1 peptide vaccine, in addition to Montanide; phase 1"}, "[2]": {"tested_on": "healthy human volunteers", "settings": "8 volunteers, one single s.c. administration, versus 4 subjects receiving placebo; whole blood"}, "[3]": {"tested_on": "advanced hormone refractory prostate cancer patients", "settings": "personalized vaccination combined with a low dose of estramustine"}},
  "data": [
    {"compound": "Polyinosinic-Polycytidylic Acid-poly-L-lysine Carboxymethylcellulose [poly-ICLC]", "values": [
      {"measurement": "patients showing induction of CD4+ and CD8+ T cell, as well as antibody responses to the peptide", "setting": "[1]", "result": "> 90", "unit": "%"},
      {"measurement": "differential expression of genes versus placebo", "setting": "[2]", "result": "up to 212 genes"}
    ]},
    {"compound": "C[C@]12CC[C@@H]3c4ccc(OC(=O)N(CCCl)CCCl)cc4CC[C@H]3[C@@H]1CC[C@@H]2O", "note": "[estramustine]", "values": [
      {"measurement": "patients with >50% decrease in serum prostate specific antigen (PSA)", "setting": "[3]", "result": 54, "unit": "%"}
    ]}
  ]
}
